Experimental data as given in US20220064141A1, “BENZOPYRIDONE HETEROCYCLIC COMPOUND AND USE THEREOF” (BrightGene Bio-Medical Technology Co., Ltd., priority 2019, published 2022).
Each block holds one compound with its values, some of them ahead of it.

Legend:
Assay type in all cases: cell-based
[1] = test system: A549 human non-small cell lung cancer cells with high expression of KRAS G12S; experiment: Cell Titer-Glo cell viability, A549 cells (72 h)
Excerpt: (§1) Effect Example 2: Pharmacodynamic Assay 2 (Determination of the efficacy of the compounds of the present disclosure on HCT116 human colon cancer cells with high expression of KRAS G13D and A549 human non-small cell lung cancer cells with high expression of KRAS G12S)
(§2) The following method was used to determine the effects of the compounds of the present disclosure on tumor cell proliferation.
(§3) For KRAS G13D subtype, HCT116 human colon cancer cell was used. For KRAS G12S subtype, A549 human non-small cell lung cancer cell was used. The efficacy of the compounds in inhibiting cancer cell viability was determined. HCT116 cells or A549 cells were cultured in a DMEM medium containing 10% fetal bovine serum, 100 U penicillin and […] streptomycin. The cells were cultured in an incubator with 5% CO2 at 37° C. Cancer cell viability was evaluated by determining the content of ATP with Cell Titer-Glo® kit (Luminescent Cell Viability Assay kit, please refer to the manufacturer's instructions for use) and evaluating the inhibition of cell growth.
(§4) The experimental method was proceeded in accordance with the steps in the instructions for the kit, and was described briefly as follows. The test compounds were first dissolved in DMSO to prepare stock solutions, and then the stock solutions were subjected to gradient dilution with the culture media of the corresponding cells, thereby preparing test samples. The final concentrations of the compounds were in the range of 30 μM to 0.01 nM. Tumor cells in logarithmic growth phase were seeded into a 96-well cell culture plate at an appropriate density. After the cell culture plate was left overnight in an incubator with 5% CO2 at 37° C., the test compound samples were added thereto and then the cells were further cultured for 72 hours. After the incubation was complete, an appropriate volume of Cell Titer-Glo® reagent was added into each well, and the cells were incubated at 37° C. for 1 to 4 hours. Then, the […] was read on a microplate reader. The percentage inhibition rates of the compounds at each concentration point were calculated by comparing the absorbance values of the sample wells with that of the control group (0.3% DMSO), and then non-linear regression analysis of the concentration of the compound vs inhibition rate was performed by using GraphPad Prism 5 software, thereby obtaining IC50 values indicating the inhibitory effects of the compounds on cell proliferation.

[2] = test system: NCI-H358 human non-small cell lung cancer cell with KRAS G12C mutation; experiment: Cell Titer-Glo cell viability, NCI-H358 cells (72 h)
Excerpt: Effect Example 1: Pharmacodynamic Assay 1 (Determination of the efficacy of the compounds of the present disclosure on NCI-H358 human non-small cell lung cancer cell with KRAS G12C mutation)
The following method was used to determine the effect of the compounds of the present disclosure on tumor cell proliferation.
as §3, with “For the” for “For”, “G12C” for “G13D”, “NCI-H358” for “HCT116 human colon cancer cell was used. For KRAS G12S subtype, A549 human”, “cells with KRAS G12C mutation were used to determine the” for “cell was used. The”, “viability. NCI-H358” for “viability was determined. HCT116 cells or A549”
as §4, with “reader.” for “reader. The percentage inhibition rates of the compounds at each concentration point were calculated by comparing the absorbance values of the sample wells with that of the control group (0.3% DMSO), and then non-linear regression analysis of the concentration of the compound vs inhibition rate was performed by using GraphPad Prism 5 software, thereby obtaining IC50 values indicating the inhibitory effects of the compounds on cell proliferation.”

[3] = test system: HCT116 human colon cancer cells with high expression of KRAS G13D; experiment: Cell Titer-Glo cell viability, HCT116 cells (72 h); details: HCT-116
Excerpt: as §1, §2, §3, §4

[4] = Homo sapiens, NCI-H358, 72 h, numeric values
[5] = Homo sapiens, NCI-H358, 72 h, class symbols

SMILES: C=CC(=O)N1CCN(c2ncnc3c(F)c(-c4c(O)cccc4F)c(Cl)cc23)CC1 [ARS-1620, reference compound]
- IC50 [1]: > 3000 nM
- IC50 ([2]; Homo sapiens, numeric values): 226 nM
- IC50 [3]: > 3000 nM

- IC50 [1]: > 3000 nM
- IC50 [2, 4]: 1170 nM
- IC50 [3]: > 3000 nM
SMILES: C=CC(=O)N1CCN(c2c(C#N)c(=O)n(-c3ccccc3C(C)C)c3cc(-c4c(C)ccc5[nH]ncc45)c(Cl)cc23)CC1 [Compound I-1]

SMILES: C=CC(=O)N1CCN(c2c(C#N)c(=O)n(-c3ccccc3C(C)C)c3cc(-c4c(C)ccc5[nH]ncc45)c(Cl)cc23)[C@@H](C)C1 [Compound I-2-1]
- IC50 [1]: > 3000 nM
- IC50 [2, 4]: 1150 nM
- IC50 [3]: > 3000 nM

- IC50 [2, 5]: < 100 nM
SMILES: C=CC(=O)N1CCN(c2c(C#N)c(=O)n(-c3c(C(C)C)ncnc3C(C)C)c3cc(-c4c(C)ccc5[nH]ncc45)c(Cl)cc23)[C@@H](C)C1 [Compound I-86-1]

- IC50 ([2]; class symbols): 100 to 1000 nM
SMILES: C=CC(=O)N1CCN(c2c(C#N)c(=O)n(-c3c(C(C)C)ncnc3C(C)C)c3cc(-c4c(C)ccc5[nH]ncc45)c(Cl)cc23)[C@@H](C)C1 [Compound I-86-2]

- IC50 [2, 5]: < 100 nM
SMILES: C=CC(=O)N1CCN(c2c(C#N)c(=O)n(-c3c(C(C)C)ncnc3C(C)C)c3cc(-c4c(OC)ccc(Cl)c4F)c(Cl)cc23)[C@@H](C)C1 [Compound I-87-1]

- IC50 ([2]; class symbols): 100 to 1000 nM
SMILES: C=CC(=O)N1CCN(c2c(C#N)c(=O)n(-c3c(C(C)C)ncnc3C(C)C)c3cc(-c4c(OC)ccc(Cl)c4F)c(Cl)cc23)[C@@H](C)C1 [Compound I-87-2]
